# Where two headings read alike, the source gives them in different places.
# How the values were obtained:
# [1] = tested on: primary murine microglia cells cocultured with OCI-LY10 lymphoma cells; test: Polarization of primary murine microglia cocultured with OCI-LY10 lymphoma cells with or without primary murine NK cells; format: cell-based; conditions: for M2 polarization of microglia cells (FXIIIA, pSTAT6): coculture with OCI-LY10 lymphoma cells, without NK cells; for polarization status of microglia cells (iNOS, pSTAT1): triple culture with OCI-LY10 lymphoma cells and primary murine NK cells, 10 ug/ml 48 hours
# Experimental: (§1) Treatments: In experiments in which IL-4 was used to induce M2 polarization of macrophages, cells were treated with IL-4 (20 ng/ml) for 48 hours followed by treatment with 4-amino-2-(2,6-dioxo-piperidine-3-yl)-isoindoline-1,3-dione (10 ug/ml) or DMSO control for 48 hours. In triple cell culture experiments with lymphoma cells, macrophages, and NK cells, the treatment was with either DMSO or 4-amino-2-(2,6-dioxo-piperidine-3-yl)-isoindoline-1,3-dione (10 ug/ml) for 48 hours.
# (§2) Immunofluorescence for analysis of macrophage polarization in cell culture experiments: Live cells were fixed in 10% formalin for 30 minutes at room temperature followed by permeabilization with PBS-0.2% Triton X-100 for 2 min. After blocking with PBS-5% goat serum-0.02% Triton X-100 for 30 minutes at 37° C., the cells were incubated overnight at 4° C. with rat monoclonal F4/80 antibody (for primary microglia cells, 1:200 Abcam), rat monoclonal CD11b (for U937, 1:200 Biolegend), rabbit polyclonal Ym1 antibody (for primary microglia cells and primary peritoneal macrophages, 1:200, Stemcell Technologies, Vancouver, Canada), rabbit polyclonal FXIII A antibody (for U937, 1:200, Abcam), mouse monoclonal p-STAT1 antibody (1:200, Abcam), rabbit polyclonal p-STAT6 antibody (1:200, Abcam) or rabbit iNOS antibody (1:200, Calbiochem). After washing, cells were incubated with the Alexa Fluor 594 Goat anti-Rat IgG secondary antibody (1:1000, Life Technologies) and FITC Donkey anti-rabbit IgG secondary antibody (1:1000, Life technology) or FITC Goat anti-mouse IgG secondary antibody (1:1000, Sigma) at 37° C. for 45 minutes. Finally, Vectashield H-1200 mounting medium with DAPI (Vector Laboratories) was used to stain the nuclei. Images were obtained on a Zeiss LSM 510 META confocal microscope.
# [2] = tested on: primary murine microglia cells; test: Polarization of IL4-treated primary murine microglia cells (immunofluorescence); format: cell-based; conditions: IL-4 20 ng/ml 48 hours then 10 ug/ml 48 hours
# Experimental: as §1
# as §2, with “After washing, cells were incubated with the Alexa Fluor 594 Goat anti-Rat IgG secondary antibody (1:1000, Life Technologies) and FITC Donkey anti-rabbit IgG secondary antibody (1:1000, Life technology) or FITC Goat anti-mouse IgG secondary antibody (1:1000, Sigma) at 37° C. for 45 minutes. Finally, Vectashield H-1200 mounting medium with DAPI (Vector Laboratories) was used to stain the nuclei. Images were obtained on a Zeiss LSM 510 META confocal microscope.” left out
# [3] = tested on: macrophages and NK cells in the CNS lymphoma microenvironment; test: Immunohistochemistry/immunofluorescence of CNS lymphoma microenvironment, Raji model; format: in vivo, athymic mice; conditions: P<0.05 vs control
# From the text: Immunohistochemistry (“IHC”) assessment for macrophages: Paraffin sections (10 μm thick) were fixed, blocked, and immunostained with the appropriate antibody: Iba-1 (BD Biosciences) for macrophages, Ym1 (Stemcell Technologies) as a marker for M2 polarization, iNOS (Calbiochem) as a marker for M1 polarization. Aperio ScanScope XT slide scanner and image analysis system (Aperio Spectrum, Vista, Calif.) were used for quantitative assessment of macrophages. Three equal-size (0.4 mM2) fields in macrophage-dense areas were selected in the contralateral brain and the tumor for counting. Data were shown as an average of the three fields.
# Immunofluorescence for natural killer cells: Frozen sections (10 μm thick) were permeabilized with PBS-0.2% Triton X-100 for 5 min. After blocking with PBS-5% goat serum-0.02% Triton X-100 for 45 mins at 37° C., the sections were incubated overnight at 4° C. with Rat monoclonal CD335 antibody (a marker for NK cells, 1:200, Biolegend). After washing, sections were incubated with the Alexa Fluor 594 Goat anti-Rat IgG secondary antibody (1:1000, Life Technologies) at 37° C. for 1.5 h. Finally, Vectashield H-1200 mounting medium with DAPI (Vector Laboratories) was used to stain the nuclei. Images were obtained on a Zeiss LSM 510 META confocal microscope. Six equal-size (0.2 mM^2) fields in NK-dense areas were selected in the tumor for taking pictures. Fluorescence intensity data were generated by Zeiss LSM 510 and shown as an average of six fields.
# Statistical analysis: One-way ANOVA was used to compare the difference between the groups at each time point. Two-way repeated measures ANOVA was used to analyze the interaction between the time and treatment. Survival analysis was performed by Kaplan Meier method. Kaplan Meier survival curves were generated using Prism4 software and the statistical difference between curves was derived with a log-rank test. P<0.05 was considered significant.
# [4] = tested on: U937 cells cocultured with Raji lymphoma cells; test: Polarization of U937 cocultured with Raji lymphoma cells with or without YTS NK cells; format: cell-based, human; conditions: for M2 polarization of U937 cells (FXIIIA, pSTAT6): coculture with Raji lymphoma cells, without NK cells; for polarization status of U937 cells (iNOS, pSTAT1): triple culture with Raji lymphoma cells and YTS NK cells, 10 ug/ml 48 hours
# Experimental: (§3) Raji lymphoma cells (ATCC), U937 human monocyte cells (ATCC) and YTS NK cells (a gift from Dr. Pamela A. Becker) were cultured at 37° C. in a humidified incubator under 5% CO2 and 95% air in RPMI-1640 supplemented with 20% FCS and 1% penicillin-streptomycin, and 1% nonessential amino acids.
# OCI-LY10 lymphoma cells (a gift from Arthur L. Shaffer III) were cultured at 37° C. in a humidified incubator under 5% CO2 and 95% air in IMDM supplemented with 20% FCS and 1% penicillin-streptomycin. Co-culture of lymphoma cells and U937 monocytes: Raji and U937 monocytes were cultured at 37° C. in a humidified incubator under 5% CO2 and 95% air in RPMI-1640 supplemented with 20% FCS and 1% penicillin-streptomycin, and 1% nonessential amino acids. OCI-LY10 and U937 monocytes were cultured at 37° C. in a humidified incubator under 5% CO2 and 95% air in IMDM supplemented with 20% FCS and 1% penicillin-streptomycin. Triple culture of lymphoma cells, U937 monocytes and YTS cells: Raji, U937 and YTS cells were cultured at 37° C. in a humidified incubator under 5% CO2 and 95% air in RPMI-1640 supplemented with 20% FCS and 1% penicillin-streptomycin, and 1% nonessential amino acids. OCI-LY10, U937 and YTS were cultured at 37° C. in a humidified incubator under 5% CO2 and 95% air in IMDM supplemented with 20% FCS and 1% penicillin-streptomycin.
# as §1
# as §2, with “After washing, cells were incubated with the Alexa Fluor 594 Goat anti-Rat IgG secondary antibody (1:1000, Life Technologies) and FITC Donkey anti-rabbit IgG secondary antibody (1:1000, Life technology) or FITC Goat anti-mouse IgG secondary antibody (1:1000, Sigma) at 37° C. for 45 minutes. Finally, Vectashield H-1200 mounting medium with DAPI (Vector Laboratories) was used to stain the nuclei. Images were obtained on a Zeiss LSM 510 META confocal microscope.” left out
# [5] = fasted male CD-IGS rats, cited from earlier work; for F: PO 50 mg/kg vs IV 5 mg/kg
# human monocyte U937 = test: Polarization of IL4-treated human monocyte U937 (immunofluorescence); format: cell-based; conditions: U937, IL-4 20 ng/ml 48 hours then 10 ug/ml 48 hours
# Experimental: as §3, §1
# Immunofluorescence for analysis of macrophage polarization in cell culture experiments: Live cells were fixed in 10% formalin for 30 minutes at room temperature followed by permeabilization with PBS-0.2% Triton X-100 for 2 min. […]
# [6] = listed as 4-amino-2-(2,6-dioxo-piperidine-3-yl)-isoindoline-1,3-dione
compound,measurement,setting,value
"Nc1cccc2c1C(=O)N(C1CCC(=O)NC1=O)C2=O (centres unmarked) [Pomalidomide, 4-amino-2-(2,6-dioxo-piperidine-3-yl)-isoindoline-1,3-dione]","M2 polarization of microglia cells (FXIIIA, pSTAT6)",[1],reversed
same,"M2 polarization of microglia cells (FXIIIA, pSTAT6)",[1]; [6],M2 polarization was not seen
same,"polarization status of microglia cells (iNOS, pSTAT1)",[1],from M2 to M1
same,"polarization status of microglia cells (iNOS, pSTAT1)",[1]; [6],became M1-polarized
same,"polarization status (FXIII A, pSTAT6 vs iNOS, pSTAT1 expression)",[2],from M2 to M1
same,CD335 positive NK cells in CNS tumors,[3],significantly increased
same,Ym1-expressing cells (M2-polarized macrophages) in tumor,[3],significantly decreased
same,iNOS-expressing cells (M1-polarized macrophages) in tumor,[3],increased
same,CD335 positive NK cells in CNS tumors,[3]; [6],significant increase
same,Ym1-expressing cells (M2-polarized macrophages) in tumor,[3]; [6],significant decrease
same,iNOS-expressing cells (M1-polarized macrophages) in tumor,[3]; [6],significant increase
same,brain macrophages (Iba-1 positive cells),[3]; contralateral brain and tumor,significantly increased
same,"M2 polarization of U937 cells (FXIIIA, pSTAT6)",[4],reversed
same,"M2 polarization of U937 cells (FXIIIA, pSTAT6)",[4]; [6],prevented the M2 polarization of macrophages but did not induce them into M1 polarization
same,"polarization status of U937 cells (iNOS, pSTAT1)",[4],from M2 to M1
same,"polarization status of U937 cells (iNOS, pSTAT1)",[4]; [6],became M1-polarized
same,F,[5],47.4%
same,F,[5]; listed as CC-4047,47.4 ± 15.2%
same,AUC(0-inf),"[5]; single IV 5 mg/kg, n = 5",7016 ± 1551 ng·h/mL
same,CL,"[5]; single IV 5 mg/kg, n = 5",12.3 mL/min/kg
same,T1/2,"[5]; single IV 5 mg/kg, n = 5",2.44 ± 0.8 h
same,Vss,"[5]; single IV 5 mg/kg, n = 5",1.75 L/kg
same,AUC(0-24),"[5]; single PO 50 mg/kg, n = 4",33155 ± 8561 ng·h/mL
same,Cmax,"[5]; single PO 50 mg/kg, n = 4",3372 ± 758 ng/mL
same,Tmax,"[5]; single PO 50 mg/kg, n = 4",2.0 ± 0.0 h
same,"polarization status (FXIII A, pSTAT6 vs iNOS, pSTAT1 expression)",human monocyte U937,from M2 to M1
